In patent publication US6630316B1, “Method for measurement of lymphocyte function” (priority 1996, dated 2003):

Key:
Assay type in all cases: cell-based
[1] = tested on: T lymphocytes separated by CD4, CD69, or CD3; assay: ATP response after PHA stimulation of T lymphocytes separated by CD4, CD69 or CD3; details: PHA (1%) for 24, 48, 72 or 96 hours; separation by CD3, CD4 or CD69
[2] = tested on: T lymphocytes (CD4) in whole blood; assay: T cell response to mitogens in a whole blood sample (CD4 separation, ATP luminescence); details: whole blood diluted 1:5, incubated overnight at 37 C; PHA at 1%, IL-2 at 1000 U/ml; control 458,451
[3] = tested on: CD8 positive T lymphocytes
[4] = tested on: CD4 positive T lymphocytes; assay: ATP (luciferin:luciferase) response of PBMC separated using CD4 antibody and goat anti-mouse paramagnetic beads; details: PHA 1 ug/ml, 24 hours, CD4 separation, unstimulated 8768

With phytohemagglutinin [PHA] the “relative light units from stimulated cells versus unstimulated cells” value [1] was “greater than those from the unstimulated cells”, the “Relative Light Units” value [2] was 5,836,682 Relative Light Units and the stimulation index [3] was > 10. For the same substance, the “Relative Light Units” value [4] was 38903 Relative Light Units.
